Reference: patent publication US7202261B2, “Calcilytic compounds” (NPS Pharmaceuticals, Inc., priority 1996, dated 2007)
pEC50, pIC50: −log10 of the molar value. Where a name gives a salt, the structure may show the parent alone.

Target: T1, human calcium receptor (Homo sapiens, UniProt P41180)
T1 construct: expressed in transfected cells
T1 sequence (P41180 20-1078): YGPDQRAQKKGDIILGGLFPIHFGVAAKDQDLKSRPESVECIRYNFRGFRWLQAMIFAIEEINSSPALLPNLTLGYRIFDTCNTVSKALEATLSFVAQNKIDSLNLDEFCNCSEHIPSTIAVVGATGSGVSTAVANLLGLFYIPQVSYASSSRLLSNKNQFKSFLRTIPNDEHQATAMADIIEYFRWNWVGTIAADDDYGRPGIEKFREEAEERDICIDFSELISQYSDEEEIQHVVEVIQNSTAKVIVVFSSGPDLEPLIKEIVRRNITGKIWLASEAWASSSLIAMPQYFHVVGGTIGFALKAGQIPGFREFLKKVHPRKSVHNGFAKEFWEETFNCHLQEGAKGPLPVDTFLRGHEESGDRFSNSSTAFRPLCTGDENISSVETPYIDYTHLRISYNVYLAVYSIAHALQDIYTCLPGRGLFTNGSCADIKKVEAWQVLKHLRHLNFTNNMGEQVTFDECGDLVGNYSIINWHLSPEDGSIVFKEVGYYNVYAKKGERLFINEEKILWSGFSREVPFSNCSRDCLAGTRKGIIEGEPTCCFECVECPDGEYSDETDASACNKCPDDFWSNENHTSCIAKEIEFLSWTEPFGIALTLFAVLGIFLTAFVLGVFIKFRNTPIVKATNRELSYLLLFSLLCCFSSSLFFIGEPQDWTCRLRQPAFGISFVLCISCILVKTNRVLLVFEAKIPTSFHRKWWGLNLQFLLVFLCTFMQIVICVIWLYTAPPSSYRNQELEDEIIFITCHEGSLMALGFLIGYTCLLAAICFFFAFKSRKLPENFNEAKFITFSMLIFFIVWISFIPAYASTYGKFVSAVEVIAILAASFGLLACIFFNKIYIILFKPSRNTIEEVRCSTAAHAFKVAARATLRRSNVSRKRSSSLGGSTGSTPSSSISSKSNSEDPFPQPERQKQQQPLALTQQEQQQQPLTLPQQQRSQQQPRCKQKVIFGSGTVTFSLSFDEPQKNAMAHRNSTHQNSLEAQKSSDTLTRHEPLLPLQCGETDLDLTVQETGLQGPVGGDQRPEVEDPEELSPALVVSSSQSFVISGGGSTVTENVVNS
Assay: Calcium Receptor Inhibitor Assay
Type: cell-based
Details: not given
Method in brief: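 Intracellular Ca^2+ measured with fluo-3 at 37° C in stirred cell suspension. Buffer held 1 mM CaCl2 and 1 mg/mL D-glucose. Compound or vehicle added 90 seconds before extracellular Ca^2+ was raised from 1 to 2 mM, and calcilytic activity scored as concentration-dependent block of the intracellular Ca^2+ rise.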

Molecule	pIC50
COc1ccc(CC(C)(C)NCCc2ccccc2)cc1 [Compound 84, N-(2-Phenylethyl)-1,1-dimethyl-2-(4-methoxyphenyl)ethylamine]	< 4.30
COc1ccc(CC(C)(C)NCC(O)Cc2ccc3c(c2)OCO3)cc1 (stereo not shown) [Compound 124, N-[2-hydroxy-3-(3,4-methylene-dioxyphenyl)propyl]-1,1-dimethyl-2-(4-methoxyphenyl)ethylamine Hydrochloride]	> 5.00
COc1ccc(CC(C)(C)NCC(O)COCC2CCCCC2)cc1 (stereo not shown) [Compound 75, N-(2-Hydroxy-3-cyclohexylmethoxypropyl)-1,1-dimethyl-2-(4-methoxyphenyl)ethylamine Hydrochloride]	> 5.00
CCCCOCC(O)CNC(C)(C)Cc1ccc(OC)cc1 (stereo not shown) [Compound 26, N-(2-Hydroxy-3-butoxypropyl)-1,1-dimethyl-2-(4-methoxyphenyl)ethylamine]	> 5.00
CCCCCCCCCCC(O)CNC(C)(C)Cc1ccc(OC)cc1 (stereo not shown) [Compound 70, N-(2-Hydroxydodecanyl)-1.1-dimethyl-2-(4-methoxyphenyl)ethylamine]	< 4.30

Same assay, conditions: HEK 293 4.0–7 cells stably expressing the human calcium receptor; fluo-3; read-out: IC50 for blocking increases of intracellular Ca2+ elicited by extracellular Ca2+

Molecule	pIC50
CCCCCCCCCCCCOCC(O)CNC(C)(C)Cc1ccc(OC)cc1 (stereo not shown) [Compound 72, N-(3-Dodecanoxy-2-hydroxypropyl)-1,1-dimethyl-2-(4-methoxyphenyl)ethylamine]	> 6.00
COc1ccc(CC(C)(C)NCC(O)COc2ccccc2OC)cc1 (stereo not shown) [Compound 49, N-[2-Hydroxy-3-(2-methoxyphenoxy)propyl]-1,1-dimethyl-2-(4-methoxyphenyl)ethylamine Hydrochloride]	> 5.00
CC(C)(Cc1ccc(Cl)c(Cl)c1)NC[C@@H](O)COc1c(C#N)sc2ccccc12 [Compound 166]	> 6.00
CC(C)(Cc1ccccc1)NCC(O)COc1cccc2ccccc12 (stereo not shown) [Compound 55, N-[2-hydroxy-3-(1-naphthoxy)propyl]-1,1-dimethyl-2-phenylethylamine]	< 4.30
COc1ccc(CC(C)(C)NC[C@H](O)COc2cccc(Cl)c2Cl)cc1 [Compound 116, (S)—N-[2-Hydroxy-3-(2,3-dichlorophenoxy)propyl]-1,1-dimethyl-2-(4-methoxyphenyl)ethyl amine Hydrochloride]	> 6.00
COc1ccc(CC(C)(C)NCC(O)COc2ccc(OC(F)(F)F)cc2)cc1 (stereo not shown) [Compound 152, N-[2-hydroxy-3-(4-trifluoromethoxyphenoxy)propyl)-1,1-dimethyl-2-(4-methoxyphenyl)ethylamine Hydrochloride]	> 5.00
COC(=O)c1ccccc1OCC(O)CNC(C)(C)Cc1ccc(OC)cc1 (stereo not shown) [Compound 134, N-[2-hydroxy-3-(2-carbomethoxyphenoxy)propyl]-1,1-dimethyl-2-(4-methoxyphenyl)ethylamine Hydrochloride]	> 6.00
CC(C)(Cc1ccc(F)cc1)NCC(O)COc1cccc2ccccc12 (stereo not shown) [Compound 2, N-[2-Hydroxy-3-(1-naphthoxy)propyl]-1,1-dimethyl-2-(4-fluorophenyl)ethylamine Hydrochloride]	> 5.00
COc1ccc(CC(C)(C)NC[C@@H](O)COc2cccc(Cl)c2C#N)cc1 [Compound 109, (R)—N-[2-Hydroxy-3-(3-chloro-2-cyanophenoxy)propyl]-1,1-dimethyl-2-(4-methoxyphenyl)-ethylamine Hydrochloride]	> 6.00
CCOc1ccc(OCC(O)CNC(C)(C)Cc2ccc(OC)cc2)cc1 (stereo not shown) [Compound 144, N-[2-hydroxy-3-(4-ethoxyphenoxy)propyl]-1,1-dimethyl-2-(4-methoxyphenyl)ethylamine Hydrochloride]	> 5.00
CC(C)(Cc1ccccc1)NCC(O)COc1ccc(C(C)(C)C)cc1 (stereo not shown) [Compound 54]	< 4.30
COc1ccc(CC(C)(C)NCC(O)COc2cccc([N+](=O)[O-])c2)cc1 (stereo not shown) [Compound 143, N-[2-hydroxy-3-(3-nitrophenoxy)propyl]-1,1-dimethyl-2-(4-methoxyphenyl)ethylamine Hydrochloride]	> 6.00
COc1ccc(CC(C)(C)NCC(O)COc2ccc(Cl)c(Cl)c2)cc1 (stereo not shown) [Compound 139, N-[2-hydroxy-3-(3,4-dichlorophenoxy)propyl]-1,1-dimethyl-2-(4-methoxyphenyl)ethylamine Hydrochloride]	> 6.00
COc1ccc(CC(C)(C)NCC(O)COc2ccccc2C(F)(F)F)cc1 (stereo not shown) [Compound 47, N-[2-Hydroxy-3-(2-trifluoromethylphenoxylpropyl]-1,1-dimethyl-2-(4-methoxyphenyl)ethylamine Hydrochloride]	> 6.00
COc1ccc(CC(C)(C)NCC(O)COc2cccc(Cl)c2Cl)cc1 (stereo not shown) [Compound 136, N-[2-hydroxy-3-(2,3-dichlorophenoxy)propyl]-1,1-dimethyl-2-(4-methoxyphenyl)ethylamine Hydrochloride]	> 6.00
COc1ccc(CC(C)(C)NCC(O)COc2ccc(C)cc2)cc1 (stereo not shown) [Compound 135, N-[2-hydroxy-3-(4-methylphenoxy)propyl]-1,1-dimethyl-2-(4-methoxyphenyl)ethylamine Hydrochloride]	> 6.00
CCCc1ccccc1OCC(O)CNC(C)(C)Cc1ccc(OC)cc1 (stereo not shown) [Compound 148, N-[2-hydroxy-3-(2-n-propylphenoxy)propyl]-1,1-dimethyl-2-(4-methoxyphenyl)ethylamine Hydrochloride]	> 6.00
COc1ccc(CC(C)(C)NCC(O)COc2ccc3ccccc3c2)cc1 (stereo not shown) [Compound 35, N-[2-Hydroxy-3-(2-naphthoxy)propyl]-1,1-dimethyl-2-(4-methoxyphenyl)ethylamine Hydrochloride]	> 5.00

Tested on: Parathyroid cells
Assay: not given
Details: read-out: EC50 for mobilization of intracellular calcium; cited from earlier work

Molecule	pEC50
gentamicin	3.82
[H]/N=C(/N)N[C@H]1[C@H](O)[C@@H](O)[C@H](O[C@@H]2O[C@@H](C)[C@](O)(C=O)[C@H]2O[C@@H]2O[C@@H](CO)[C@H](O)[C@@H](O)[C@@H]2NC)[C@@H](N/C(N)=N\[H])[C@@H]1O [streptomycin]	3.22
